{"source": "paper PMC3998376", "about": "(Journal of chromatography. A, 2014)", "key": {"[1]": {"system": "Pgp, MRP1 and BCRP transporters (LN-229 cellular membranes, open tubular)", "experiment": "Frontal affinity chromatography on CMAC", "type": "binding, human", "conditions": "read-out: Binding affinity (Kd); CMAC(LN-229)-OT column, ammonium acetate 10 mM pH 7.4, 0.05 mL/min"}, "[2]": {"system": "Pgp, MRP1 and BCRP transporters (LN-229 nuclear membranes, open tubular)", "experiment": "Frontal affinity chromatography on NMAC", "type": "binding, human", "conditions": "read-out: Binding affinity (Kd); NMAC(LN-229)-OT column, ammonium acetate 10 mM pH 7.4, 0.05 mL/min"}, "BCRP": {"molecular_target": "T1, BCRP (Homo sapiens, UniProt Q9UNQ0)", "T1 sequence (Q9UNQ0 1-655)": "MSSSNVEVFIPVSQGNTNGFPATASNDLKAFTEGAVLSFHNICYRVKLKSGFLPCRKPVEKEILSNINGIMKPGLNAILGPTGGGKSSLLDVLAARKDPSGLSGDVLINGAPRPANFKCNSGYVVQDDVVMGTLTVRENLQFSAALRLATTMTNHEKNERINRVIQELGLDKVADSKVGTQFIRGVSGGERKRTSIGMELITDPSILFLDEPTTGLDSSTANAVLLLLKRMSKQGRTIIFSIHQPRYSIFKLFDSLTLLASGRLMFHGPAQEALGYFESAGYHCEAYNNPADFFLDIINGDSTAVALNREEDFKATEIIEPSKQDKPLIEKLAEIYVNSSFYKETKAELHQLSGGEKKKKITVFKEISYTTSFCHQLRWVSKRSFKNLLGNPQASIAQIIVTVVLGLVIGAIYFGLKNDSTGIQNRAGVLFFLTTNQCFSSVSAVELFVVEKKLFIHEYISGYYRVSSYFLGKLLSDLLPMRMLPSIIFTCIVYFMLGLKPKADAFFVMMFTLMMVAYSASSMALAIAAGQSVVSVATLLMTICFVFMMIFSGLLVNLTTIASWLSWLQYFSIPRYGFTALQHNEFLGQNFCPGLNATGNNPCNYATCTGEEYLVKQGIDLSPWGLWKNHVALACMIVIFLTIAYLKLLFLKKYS", "experiment": "Selective Kd determination on NMAC", "type": "binding"}, "Pgp, MRP1 and BCRP [3]": {"system": "Pgp, MRP1 and BCRP", "experiment": "Frontal affinity chromatography on CMAC", "type": "binding, human", "conditions": "human, pH 7.4"}, "MRP1": {"molecular_target": "MRP1 (Homo sapiens, UniProt P33527)", "sequence (P33527 whole entry)": "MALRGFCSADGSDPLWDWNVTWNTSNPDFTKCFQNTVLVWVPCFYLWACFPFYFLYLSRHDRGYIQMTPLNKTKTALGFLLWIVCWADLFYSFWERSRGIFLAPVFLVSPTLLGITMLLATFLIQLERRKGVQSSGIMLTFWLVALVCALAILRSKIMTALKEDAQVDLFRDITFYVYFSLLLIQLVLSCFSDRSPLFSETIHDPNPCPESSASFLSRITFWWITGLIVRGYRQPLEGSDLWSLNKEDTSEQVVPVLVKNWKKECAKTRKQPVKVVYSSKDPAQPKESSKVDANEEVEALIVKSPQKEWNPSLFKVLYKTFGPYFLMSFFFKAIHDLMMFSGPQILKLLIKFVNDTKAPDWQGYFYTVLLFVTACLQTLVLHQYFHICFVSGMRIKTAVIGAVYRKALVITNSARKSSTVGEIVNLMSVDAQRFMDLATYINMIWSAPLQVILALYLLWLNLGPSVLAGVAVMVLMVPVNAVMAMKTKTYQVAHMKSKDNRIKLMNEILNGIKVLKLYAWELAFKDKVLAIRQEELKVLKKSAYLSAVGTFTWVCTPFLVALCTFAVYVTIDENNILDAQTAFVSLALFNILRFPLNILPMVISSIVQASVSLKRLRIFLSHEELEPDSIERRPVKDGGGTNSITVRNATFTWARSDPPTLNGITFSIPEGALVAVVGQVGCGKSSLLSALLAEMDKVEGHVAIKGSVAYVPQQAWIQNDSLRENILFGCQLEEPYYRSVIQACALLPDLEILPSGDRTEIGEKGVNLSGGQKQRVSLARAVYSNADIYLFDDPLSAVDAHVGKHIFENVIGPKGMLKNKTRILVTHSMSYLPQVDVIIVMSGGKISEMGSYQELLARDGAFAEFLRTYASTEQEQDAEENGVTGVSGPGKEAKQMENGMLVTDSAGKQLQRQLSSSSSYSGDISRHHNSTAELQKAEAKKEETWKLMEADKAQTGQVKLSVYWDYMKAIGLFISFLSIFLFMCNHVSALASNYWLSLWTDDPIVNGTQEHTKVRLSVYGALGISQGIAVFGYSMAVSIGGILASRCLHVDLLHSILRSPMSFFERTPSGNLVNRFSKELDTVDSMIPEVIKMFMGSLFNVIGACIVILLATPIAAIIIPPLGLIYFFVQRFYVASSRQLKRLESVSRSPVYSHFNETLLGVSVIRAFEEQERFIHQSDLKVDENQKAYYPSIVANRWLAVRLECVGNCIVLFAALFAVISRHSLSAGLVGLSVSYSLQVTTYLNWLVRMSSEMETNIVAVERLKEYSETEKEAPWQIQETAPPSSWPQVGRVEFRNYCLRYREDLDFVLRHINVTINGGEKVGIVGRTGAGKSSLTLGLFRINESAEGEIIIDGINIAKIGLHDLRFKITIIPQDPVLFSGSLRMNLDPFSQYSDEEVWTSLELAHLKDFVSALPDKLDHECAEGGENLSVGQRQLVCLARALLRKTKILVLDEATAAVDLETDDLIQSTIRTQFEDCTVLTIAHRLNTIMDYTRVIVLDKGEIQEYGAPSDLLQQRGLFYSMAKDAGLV", "experiment": "Selective Kd determination on NMAC", "type": "binding"}, "[4]": {"system": "Pgp, MRP1 and BCRP co-immobilized", "experiment": "in vitro", "conditions": "human, pH 7.4, Binding affinity (Kd), NMAC(LN-229)-IAM column, all transporters, ammonium acetate 10 mM pH 7.4, 0.4 mL/min"}, "Pgp, MRP1 and BCRP [5]": {"system": "Pgp, MRP1 and BCRP", "experiment": "Frontal affinity chromatography on NMAC", "type": "binding, human", "conditions": "human, pH 7.4"}, "nuclear BCRP": {"molecular_target": "T2, nuclear BCRP (Homo sapiens, UniProt Q9UNQ0)", "T2 sequence (Q9UNQ0 1-655)": "T1 sequence (Q9UNQ0 1-655)", "experiment": "Screening of BCRP ligands, single frontal displacement of etoposide on NMAC", "conditions": "NMAC(LN229) column, verapamil in mobile phase, etoposide as marker ligand"}}}
{"smiles": "COc1ccc(-c2coc3cc(O)cc(O)c3c2=O)cc1", "note": "[biochanin A]", "values": [{"measurement": "Kd", "setting": "[1]", "result": "690 ± 170", "unit": "nM"}, {"measurement": "Kd", "setting": "[2]", "result": "1750 ± 360", "unit": "nM"}]}
{"smiles": "COc1cc([C@@H]2c3cc4c(cc3[C@@H](O[C@@H]3O[C@@H]5CO[C@@H](C)O[C@H]5[C@H](O)[C@H]3O)[C@H]3COC(=O)[C@H]23)OCO4)cc(OC)c1O", "note": "[etoposide]", "values": [{"measurement": "Kd", "setting": "BCRP", "result": "1410 ± 540", "unit": "nM"}, {"measurement": "Reduction of breakthrough volume on addition of 2 μM verapamil", "setting": "BCRP; 0.75 μM etoposide, NMAC(LN-229)-IAM", "result": "~ 10%"}, {"measurement": "Reduction of breakthrough volume on addition of 2 μM verapamil", "setting": "BCRP; 5 μM etoposide, NMAC(LN-229)-IAM", "result": "~ 15%"}, {"measurement": "Breakthrough volume with 2 μM verapamil in mobile phase", "setting": "BCRP; 5 μM etoposide, NMAC(LN-229)-IAM, 2 μM verapamil", "result": 21.01, "unit": "min"}, {"measurement": "Kd", "setting": "Pgp, MRP1 and BCRP [3]", "result": "2250 ± 490", "unit": "nM"}, {"measurement": "Kd", "setting": "MRP1", "result": "4390 ± 1930", "unit": "nM"}, {"measurement": "Kd", "setting": "[4]", "result": "3750 ± 970", "unit": "nM"}, {"measurement": "Kd", "setting": "Pgp, MRP1 and BCRP [5]", "result": "1260 ± 360", "unit": "nM"}]}
{"smiles": "Cc1cn([C@H]2C[C@H](N=[N+]=[N-])[C@@H](CO)O2)c(=O)[nH]c1=O", "note": "[AZT, zidovudine]", "values": [{"measurement": "Change in retention of etoposide", "setting": "nuclear BCRP", "result": "−5", "unit": "%"}]}
